Where a name gives a salt, the structure may show the parent alone.

This assay deals with T1, BACE1 (Homo sapiens, UniProt P56817).
T1 construct: endogenous in cells; host or cells: HEK293 stably transfected with human APP695 wt
T1 sequence (P56817 46-501): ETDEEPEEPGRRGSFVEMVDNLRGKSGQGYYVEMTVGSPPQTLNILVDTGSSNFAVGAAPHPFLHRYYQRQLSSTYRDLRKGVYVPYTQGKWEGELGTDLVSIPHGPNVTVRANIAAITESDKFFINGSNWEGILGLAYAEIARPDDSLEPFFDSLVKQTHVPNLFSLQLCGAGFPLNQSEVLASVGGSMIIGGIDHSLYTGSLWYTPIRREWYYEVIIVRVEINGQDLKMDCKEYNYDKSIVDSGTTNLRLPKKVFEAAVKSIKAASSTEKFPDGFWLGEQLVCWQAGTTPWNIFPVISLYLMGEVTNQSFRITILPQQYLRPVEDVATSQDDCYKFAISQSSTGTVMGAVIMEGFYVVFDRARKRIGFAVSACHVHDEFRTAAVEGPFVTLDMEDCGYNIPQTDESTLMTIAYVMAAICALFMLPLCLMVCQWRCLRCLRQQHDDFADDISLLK
Briefly: Cellular Aβ-lowering assay b): HEK293 APP Abeta 40 AlphaLISA Assay. The class given is cell-based. Conditions: assay b): HEK293 APP cells, Aβ 40 in supernatant by AlphaLISA, 18-20 hrs incubation. As to the method: b) HEK293 APP: Abeta 40 AlphaLISA Assay
The cells were seeded in 96 well Microtiter plates in cell culture medium (Iscove's, plus 10% (v/v) fetal bovine serum, penicillin/streptomycin) to about 80% confluency and the compounds were added at a 3× concentration in ⅓ volume of culture medium (final DMSO concentration was kept at 1% v/v). After 18-20 hrs incubation at 37° C. and 5% CO2 in a humidified incubator, the culture supernatants were harvested for the determination of Aβ 40 concentrations using Perkin-Elmer Human Amyloid beta 1-40 (high specificity) Kit (Cat#AL275C).
In a Perkin-Elmer White Optiplate-384 (Cat#6007290), […] culture supernatants were combined with 2 μl of a 10X AlphaLISA Anti-hAβ Acceptor beads+Biotinylated Antibody Anti-Aβ 1-40 Mix (50 μg/mL/5 nM). After 1 hour room temperature incubation, 16 μl of a 1.25× preparation of Streptavidin (SA) Donor beads (25 μg/mL) were added and incubated for 30 minutes in the Dark. Light Emission at 615 nm was then recorded using EnVision-Alpha Reader. Levels of Aβ 40 in the culture supernatants were calculated as percentage of maximum signal (cells treated with 1% DMSO without inhibitor). The IC50 values were calculated using the Excel XLfit software.
For orientation: IC50 means the point on the concentration scale where inhibition reaches its midpoint. Higher therefore signals lower potency. `CC1(C)OCC(N)=N[C@](C)(c2cc(-c3cn(-c4ccccn4)cn3)ccc2F)C1(F)F` [Example 22, (R)-6,6-Difluoro-5-[2-fluoro-5-(1-pyridin-2-yl-1H-imidazol-4-yl)-phenyl]-5,7,7-trimethyl-2,5,6,7-tetrahydro-[1,4]oxazepin-3-ylamine] gave an IC50 of 200 nM. With `CC1(C)OCC(N)=N[C@](C)(c2cc(-c3nc4ccc(C(F)(F)F)cc4o3)c(F)cc2F)C1(F)F` [Example 43, (R)-5-[2,4-Difluoro-5-(6-trifluoromethyl-benzooxazol-2-yl)-phenyl]-6,6-difluoro-5,7,7-trimethyl-2,5,6,7-tetrahydro-[1,4]oxazepin-3-ylamine] the figure was 70 nM.

`CC1(C)OCC(N)=N[C@](C)(c2cc(C#Cc3ncc(Cl)cn3)ccc2F)C1(F)F` [Example 34, (R)-5-[5-(5-Chloro-pyrimidin-2-ylethynyl)-2-fluoro-phenyl]-6,6-difluoro-5,7,7-trimethyl-2,5,6,7-tetrahydro-[1,4]oxazepin-3-ylamine]: half-maximal inhibition (IC50) required 13 nM. With `CC1(C)OCC(N)=N[C@](C)(c2cc(C#Cc3ccccn3)ccc2F)C1(F)F` [Example 39, (R)-6,6-Difluoro-5-(2-fluoro-5-pyridin-2-ylethynyl-phenyl)-5,7,7-trimethyl-2,5,6,7-tetrahydro-[1,4]oxazepin-3-ylamine] the figure was 360 nM. The result for `CC1(C)OCC(N)=N[C@](C)(c2cc(-c3nc4ccc(Cl)cc4o3)c(F)cc2F)C1(F)F` [Example 31, (R)-5-[5-(6-Chloro-benzooxazol-2-yl)-2,4-difluoro-phenyl]-6,6-difluoro-5,7,7-trimethyl-2,5,6,7-tetrahydro-[1,4]oxazepin-3-ylamine] reads 180 nM; that for `CC1(C)OCC(N)=N[C@](C)(c2cc(-c3ncc(Cl)cn3)c(F)cc2F)C1(F)F` [Example 32, (R)-5-[5-(5-Chloro-pyrimidin-2-yl)-2,4-difluoro-phenyl]-6,6-difluoro-5,7,7-trimethyl-2,5,6,7-tetrahydro-[1,4]oxazepin-3-ylamine], 500 nM; that for `CC(C)(C)COS(=O)(=O)c1cccc(-c2ccc(F)c([C@@]3(C)N=C(N)COC(C)(C)C3(F)F)c2)c1` [Example 12, 3′-((R)-3-Amino-6,6-difluoro-5,7,7-trimethyl-2,5,6,7-tetrahydro-[1,4]oxazepin-5-yl)-4′-fluoro-biphenyl-3-sulfonic acid 2,2-dimethyl-propyl ester], 5180 nM. The result for `CC1(C)OCC(N)=N[C@](C)(c2cc(-c3nc4cc(F)c(F)cc4o3)c(F)cc2F)C1(F)F` [Example 42, (R)-5-[5-(5,6-Difluoro-benzooxazol-2-yl)-2,4-difluoro-phenyl]-6,6-difluoro-5,7,7-trimethyl-2,5,6,7-tetrahydro-[1,4]oxazepin-3-ylamine] reads 550 nM.

The molecule `CC1(C)OCC(N)=N[C@](C)(c2cc(C#Cc3ccc(Cl)nn3)ccc2F)C1(F)F` [Example 37, (R)-5-[5-(6-Chloro-pyridazin-3-ylethynyl)-2-fluoro-phenyl]-6,6-difluoro-5,7,7-trimethyl-2,5,6,7-tetrahydro-[1,4]oxazepin-3-ylamine] yielded an IC50 of 145 nM.

Take `CC1(C)OCC(N)=N[C@](C)(c2cc(C#Cc3cc(C#N)ccn3)ccc2F)C1(F)F` [Example 36, 2-[3-((R)-3-Amino-6,6-difluoro-5,7,7-trimethyl-2,5,6,7-tetrahydro-[1,4]oxazepin-5-yl)-4-fluoro-phenylethynyl]-isonicotinonitrile]: half-maximal inhibition (IC50) was put at 115 nM.

`CC1(C)OCC(N)=N[C@](C)(c2cc(C#Cc3cncc(Cl)c3)ccc2F)C1(F)F` [Example 38, (R)-5-[5-(5-Chloro-pyridin-3-ylethynyl)-2-fluoro-phenyl]-6,6-difluoro-5,7,7-trimethyl-2,5,6,7-tetrahydro-[1,4]oxazepin-3-ylamine] gave an IC50 of 152 nM. With `CC1(C)OCC(N)=N[C@](C)(c2cc(-c3cn(-c4ccc(C(F)(F)F)cn4)cn3)ccc2F)C1(F)F` [Example 23, (R)-6,6-Difluoro-5-{2-fluoro-5-[1-(5-trifluoromethyl-pyridin-2-yl)-1H-imidazol-4-yl]-phenyl}-5,7,7-trimethyl-2,5,6,7-tetrahydro-[1,4]oxazepin-3-ylamine] the figure was 220 nM; with `CC1(C)OCC(N)=N[C@](C)(c2cc(-c3cnn(-c4ccc(F)cc4)c3)c(F)cc2F)C1(F)F` [Example 29, (R)-6,6-Difluoro-5-{2,4-difluoro-5-[1-(4-fluoro-phenyl)-1H-pyrazol-4-yl]-phenyl}-5,7,7-trimethyl-2,5,6,7-tetrahydro-[1,4]oxazepin-3-ylamine], 940 nM. For the molecule `CC(C)(C)NS(=O)(=O)c1cccc(-c2ccc(F)c([C@@]3(C)N=C(N)COC(C)(C)C3(F)F)c2)c1` [Example 15, 3′-((R)-3-Amino-6,6-difluoro-5,7,7-trimethyl-2,5,6,7-tetrahydro-[1,4]oxazepin-5-yl)-4′-fluoro-biphenyl-3-sulfonic acid tert-butylamide], half-maximal inhibition (IC50) was put at 4000 nM. On to `COc1cnc(C#Cc2ccc(F)c([C@@]3(C)N=C(N)COC(C)(C)C3(F)F)c2)cn1` [Example 40, (R)-6,6-Difluoro-5-[2-fluoro-5-(5-methoxy-pyrazin-2-ylethynyl)-phenyl]-5,7,7-trimethyl-2,5,6,7-tetrahydro-[1,4]oxazepin-3-ylamine], for which the IC50 came to 480 nM. With `COc1ncc(-c2cc([C@@]3(C)N=C(N)COC(C)(C)C3(F)F)c(F)cc2F)cn1` [Example 30, (R)-5-[2,4-Difluoro-5-(2-methoxy-pyrimidin-5-yl)-phenyl]-6,6-difluoro-5,7,7-trimethyl-2,5,6,7-tetrahydro-[1,4]oxazepin-3-ylamine formate] the figure was 75 nM; with `CC1(C)OCC(N)=N[C@](C)(c2cc(C#Cc3ccnc(Cl)c3)ccc2F)C1(F)F` [Example 35, (R)-5-[5-(2-Chloro-pyridin-4-ylethynyl)-2-fluoro-phenyl]-6,6-difluoro-5,7,7-trimethyl-2,5,6,7-tetrahydro-[1,4]oxazepin-3-ylamine], 79 nM; with `CC1(C)OCC(N)=N[C@](C)(c2cc(C#Cc3ccc(C#N)cn3)ccc2F)C1(F)F` [Example 33, 6-[3-((R)-3-Amino-6,6-difluoro-5,7,7-trimethyl-2,5,6,7-tetrahydro-[1,4]oxazepin-5-yl)-4-fluoro-phenylethynyl]-nicotinonitrile], 3 nM. Take `CC1(C)OCC(N)=N[C@](C)(c2cc(C#Cc3cccc(Cl)c3)c(F)cc2F)C1(F)F` [Example 24, (R)-5-[5-(3-Chloro-phenylethynyl)-2,4-difluoro-phenyl]-6,6-difluoro-5,7,7-trimethyl-2,5,6,7-tetrahydro-[1,4]oxazepin-3-ylamine]: the IC50 worked out at 1270 nM. The result for `CC1(C)OCC(N)=N[C@](C)(c2cc(-c3nc4ccc(Cl)cc4s3)ccc2F)C1(F)F` [Example 21, (R)-5-[5-(6-Chloro-benzothiazol-2-yl)-2-fluoro-phenyl]-6,6-difluoro-5,7,7-trimethyl-2,5,6,7-tetrahydro-[1,4]oxazepin-3-ylamine hydrochloride] reads 7430 nM. With `CC1(C)OCC(N)=N[C@](C)(c2cc(-c3nc4cc(Cl)ccc4o3)c(F)cc2F)C1(F)F` [Example 41, (R)-5-[5-(5-Chloro-benzooxazol-2-yl)-2,4-difluoro-phenyl]-6,6-difluoro-5,7,7-trimethyl-2,5,6,7-tetrahydro-[1,4]oxazepin-3-ylamine] the figure was 550 nM; with `CC1(C)OCC(N)=N[C@](C)(c2cc(-c3ccc(C#N)cc3)ccc2F)C1(F)F` [Example 20, 3′-((R)-3-Amino-6,6-difluoro-5,7,7-trimethyl-2,5,6,7-tetrahydro-[1,4]oxazepin-5-yl)-4′-fluoro-biphenyl-4-carbonitrile], 710 nM; with `CC1(C)OCC(N)=N[C@](C)(c2cc(-c3cc(F)cc(Cl)c3)ccc2F)C1(F)F` [Example 11, (R)-5-(5′-Chloro-4,3′-difluoro-biphenyl-3-yl)-6,6-difluoro-5,7,7-trimethyl-2,5,6,7-tetrahydro-[1,4]oxazepin-3-ylamine hydrochloride], 510 nM. With `CC(C)(C)NS(=O)(=O)c1cncc(-c2ccc(F)c([C@@]3(C)N=C(N)COC(C)(C)C3(F)F)c2)c1` [Example 16, 5-[3-((R)-3-Amino-6,6-difluoro-5,7,7-trimethyl-2,5,6,7-tetrahydro-[1,4]oxazepin-5-yl)-4-fluoro-phenyl]-pyridine-3-sulfonic acid tert-butylamide] the figure was 1550 nM.

The values above are taken from patent US8877744B2, “1,4-Oxazepines as BACE1 and/or BACE2 inhibitors” (Hoffmann-La Roche Inc., priority 2011, dated 2014).
